From ChEMBL document CHEMBL6087470, “Design of Small Non-Peptidic Ligands That Alter Heteromerization between Cannabinoid CB1 and Serotonin 5HT2A Receptors” (J Med Chem, 2025) come the findings set out here.

Assay [1] has as its system HEK293T. Kind of assay: Disruption of human CB1R-nYFP-5HT2AR-cYFP heterodimerization co-transfected in HEK293T cells assessed as decrease in fluorescence signal at 4 uM incubated for 4 hrs by BiFC assay. It counts as cell-based.
Assay [2] addresses 5-hydroxytryptamine receptor 2A (Homo sapiens) (UniProt P28223). Nature of the assay: Binding affinity to human 5HT2AR-nYFP-5HT2AR-cYFP homodimerization co-transfected in HEK293T cells at 4 uM incubated for 4 hrs by BiFC assay. It counts as cell-based.
Assay [3] has as its system HEK-293T. Nature of the assay: Upregulation of ERK1/2 phosphorylation in forskolin-treated HEK293T cells transfected with CB1R-nYFP-5HT2AR-cYFP pretreated with DOI/WIN by cAMP based HTRF assay. In kind it is functional, cell-based. To be noted: Homo sapiens.
In assay [4] the target is Cannabinoid receptor 1 (Homo sapiens) (UniProt P21554). Kind of assay: Binding affinity to human CB1R-nYFP-CB1R-cYFP homodimerization co-transfected in HEK293T cells at 4 uM incubated for 4 hrs by BiFC assay. It counts as cell-based.
Cannabinoid receptor 1 (Homo sapiens), sequence (P21554 whole entry): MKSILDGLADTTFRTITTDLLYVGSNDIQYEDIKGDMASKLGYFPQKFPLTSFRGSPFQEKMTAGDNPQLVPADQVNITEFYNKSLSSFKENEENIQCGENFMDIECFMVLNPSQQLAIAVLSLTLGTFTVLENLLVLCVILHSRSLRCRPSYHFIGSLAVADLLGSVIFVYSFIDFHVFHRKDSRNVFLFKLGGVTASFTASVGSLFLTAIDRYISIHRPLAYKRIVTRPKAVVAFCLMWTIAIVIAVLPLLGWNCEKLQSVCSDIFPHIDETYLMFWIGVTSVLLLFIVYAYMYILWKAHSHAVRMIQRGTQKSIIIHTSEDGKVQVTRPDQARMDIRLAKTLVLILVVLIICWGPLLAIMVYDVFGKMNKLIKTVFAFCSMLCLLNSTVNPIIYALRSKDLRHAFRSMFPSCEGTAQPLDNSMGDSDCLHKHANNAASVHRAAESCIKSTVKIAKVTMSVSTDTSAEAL
The subject of assay [5] is HEK-293T. Kind of assay: Effect on G-protein coupling of 5HT2AR in forskolin-treated HEK293T cells transfected with CB1R-nYFP-5HT2AR-cYFP assessed as decrease in cAMP level pretreated with WIN/MDL by HTRF assay. In kind it is functional, cell-based. As to conditions: Homo sapiens. In general terms: cAMP levels reflect the balance of adenylyl cyclase and phosphodiesterase activity.

Assay [6] concerns HEK-293T. Kind of assay: Effect on G-protein coupling of 5HT2AR in forskolin-treated HEK293T cells transfected with CB1R-nYFP-5HT2AR-cYFP pretreated with WIN by cAMP based HTRF assay. In kind it is functional, cell-based. To be noted: Homo sapiens. (TR-FRET usually uses a lanthanide donor and a delayed reading to cut background.)
For assay [7], the system named is HEK-293T. Nature of the assay: Effect on G-protein coupling of 5HT2AR in forskolin-treated HEK293T cells transfected with CB1R-nYFP-5HT2AR-cYFP assessed as decrease in cAMP level pretreated with DOI/WIN by HTRF assay. It counts as functional, cell-based. As to conditions: Homo sapiens.
Assay [8] deals with HEK-293T. Kind of assay: Upregulation of ERK1/2 phosphorylation in forskolin-treated HEK293T cells transfected with CB1R-nYFP-5HT2AR-cYFP pretreated with WIN/MDL by cAMP based HTRF assay. In kind it is functional, cell-based. As to conditions: Homo sapiens.
Assay [9] deals with HEK-293T. Kind of assay: Effect on G-protein coupling of 5HT2AR in forskolin-treated HEK293T cells transfected with CB1R-nYFP-5HT2AR-cYFP pretreated with DOI by cAMP based HTRF assay. As to conditions: Homo sapiens. It counts as functional, cell-based.
Assay [10] relates to HEK-293T. Kind of assay: Upregulation of ERK1/2 phosphorylation in forskolin-treated HEK293T cells transfected with CB1R-nYFP-5HT2AR-cYFP pretreated with DOI/RIM by cAMP based HTRF assay. It counts as functional, cell-based. To be noted: Homo sapiens.
For assay [11], the system named is HEK-293T. Kind of assay: Effect on G-protein coupling of 5HT2AR in forskolin-treated HEK293T cells transfected with CB1R-nYFP-5HT2AR-cYFP assessed as decrease in cAMP level pretreated with DOI/RIM by HTRF assay. In kind it is functional, cell-based. As to conditions: Homo sapiens.
Assay [12] relates to HEK-293T. Kind of assay: Effect on ERK1/2 phosphorylation in forskolin-treated HEK293T cells transfected with CB1R-nYFP-5HT2AR-cYFP pretreated with DOI by cAMP based HTRF assay. In kind it is functional, cell-based. To be noted: Homo sapiens.

Activity calls are given as the source filed them. The calls are words filed in the database; no cut-off is given here.

5-hydroxytryptamine receptor 2A (Homo sapiens), sequence (P28223 whole entry): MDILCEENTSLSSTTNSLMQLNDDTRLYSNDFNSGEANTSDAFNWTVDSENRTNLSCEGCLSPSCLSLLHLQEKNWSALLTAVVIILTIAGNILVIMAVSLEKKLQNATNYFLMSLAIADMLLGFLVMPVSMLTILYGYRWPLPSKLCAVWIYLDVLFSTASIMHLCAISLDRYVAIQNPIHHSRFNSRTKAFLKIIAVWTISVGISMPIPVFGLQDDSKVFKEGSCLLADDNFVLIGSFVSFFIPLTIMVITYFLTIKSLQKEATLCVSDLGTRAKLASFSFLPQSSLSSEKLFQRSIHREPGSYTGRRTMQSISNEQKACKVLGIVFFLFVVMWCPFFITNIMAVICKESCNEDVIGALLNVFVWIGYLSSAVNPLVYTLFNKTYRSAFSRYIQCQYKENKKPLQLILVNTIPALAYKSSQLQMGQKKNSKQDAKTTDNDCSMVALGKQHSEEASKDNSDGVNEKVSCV

On to `CC(C)COCC(NC(=O)c1cccnc1)c1ccco1` (stereo not given), for which the result in [1] was Active.

Take `CC(C)CNC(=O)c1oc2ccccc2c1COc1ccccc1`: the outcome in assay [2], in [3], in assay [5], in assay [7], in assay [1] and in [8] was Active. Besides, the outcome in [10] and in assay [11] was Active. Further, the result in assay [4] was inactive. Besides, the Activity entry in assay [6], in assay [9] and in assay [12] was “No effect” throughout.

Turning to `C=CCNC(=O)c1cn(-c2ccccc2)nc1-c1cccs1`, in assay [2], the outcome was inactive. For the same molecule, the outcome in [4] was Active.

For `CC(C)NC(=O)Cn1ccc2ccc(OCc3ccccc3)cc21`, the result in assay [2], in assay [3], in assay [5], in [7], in assay [1] and in assay [8] was Active. In addition, the outcome in [10] and in assay [11] was Active. Besides, the outcome in assay [4] was inactive. The Activity result in [6], in assay [9] and in assay [12] was “No effect” each time.

Consider `CCC(CC)C(=O)N(Cc1ccccc1)Cc1ccccc1`, for which the result in assay [2], in assay [3], in assay [5], in [7], in [1] and in [8] was Active. In addition, the outcome in assay [10] and in assay [11] was Active. In [4], the result was inactive. The Activity result in [6], in [9] and in assay [12] was “No effect” throughout.

`CC(C)COc1nc(-c2ccccc2)cc(-c2ccccc2)c1C#N`: the outcome in assay [1] was Active.
